Reference: patent US7531554B2, “4-oxoquinoline compound and use thereof as HIV integrase inhibitor” (Japan Tobacco Inc., priority 2004, dated 2009)
Structures can show the parent of a compound that is named as a salt.

These compounds were tested against T1, HIV integrase (Human immunodeficiency virus type 1 group M subtype B, UniProt P12497, F1332H) (assay: Determination of enzyme (HIV integrase) inhibitory activity). Conditions: recombinant integrase protein (F185H), donor DNA/target DNA, absorbance at 450 nm.
T1 construct: HIV integrase full length gene (J. Virol., 67, 425-437 (1993)) in which phenylalanine at codon 185 was substituted by histidine; made in house; host or cells: Escherichia coli BL21(DE3)
Format: biochemical
Experimental: HIV integrase full length gene (J. Virol., 67, 425-437 (1993)) in which phenylalanine at codon 185 was substituted by histidine, was inserted between the restriction enzyme NdeI and XhoI sites of plasmid pET21a(+) (Novagen), whereby an integrase expression vector pET21a-IN-F185H was constructed.
Escherichia coli recombinant BL21(DE3) transformed with plasmid pET21a-IN-F185H obtained in (i) was shake cultured at 30° C. in a liquid medium containing ampicillin. When the culture reached the logarithmic growth phase, isopropyl-β-D-thiogalactopyranoside was added to promote expression of integrase gene. The culture was continued for 3 hr to promote accumulation of the integrase protein. The recombinant E. coli was collected in pellets by centrifugal separation and preserved at −80° C.
The E. coli was suspended in Lysis buffer (20 mM HEPES (pH 7.5), 5 mM DTT, 10 mM CHAPS, 10% glycerol) containing 1M sodium chloride and subjected to repeat pressurization and depressurization for rupture, and centrifugal separation at 4° C., 40,000×g, 60 min to recover a water-soluble fraction (supernatant). This was diluted 10-fold with Lysis buffer free of sodium chloride, mixed with SP-Sepharose (Pharmacia Corporation) and stirred at 4° C. for 60 min to allow adsorption of integrase protein to the resin. The resin was washed with Lysis buffer containing 100 mM sodium chloride and the integrase protein was eluted with Lysis buffer containing 1M sodium chloride.
The eluted integrase protein solution was subjected to a Superdex 75 (Pharmacia Corporation) column for gel filtration. The protein was eluted with Lysis buffer containing 1M sodium chloride.
The obtained fractions of the integrase protein were collected and preserved at −80° C.
The following DNA synthesized by Greiner was dissolved in TE buffer (10 mM Tris-hydrochloric acid (pH 8.0), 1 mM EDTA) and mixed with donor DNA, target DNA, and each complementary strand (+ and − strands) to 1 μM. The mixture was heated at 95° C. for 5 min, 80° C. for 10 min, 70° C. for 10 min, 60° C. for 10 min, 50° C. for 10 min and 40° C. for 10 min and kept at 25° C. to give a double stranded DNA, which was used for the test. Donor DNA ([…] attached to the 5′ terminal) Donor + strand: 5′-Biotin-ACCCTTTTAGTCAGTGTGGAAAATCTCTAGCA-3′ (SEQ ID NO:1) Donor − strand: 5′-ACTGCTAGAGATTTTCCACACTGACTAAAAG-3′ (SEQ ID NO:2) Target DNA (+, − strands both having digoxigenin added at 3′ terminal) Target + strand: 5′-TGACCAAGGGCTAATTCACT-Dig-3′ (SEQ ID NO:3) Target − strand: 5′-AGTGAATTAGCCCTTGGTCA-Dig-3′ (SEQ ID NO:4)
The donor DNA was diluted with TE buffer to 10 nM, of which 50 μl was added to each well of streptavidin-coated microtiter plate (Roche) and allowed to adsorb at 37° C. for 60 min. The plate was washed with phosphate buffer (Dulbecco's PBS, Sanko Junyaku Co., Ltd.) containing 0.1% Tween 20 and phosphate buffer. Then, an enzyme reaction mixture (70 μl), a test substance (10 μl) diluted with the reaction mixture and 100 μg/ml integrase protein (10 μl) were added to each well and reacted at 37° C. for 60 min.
Then, 50 nM target DNA (10 μl) was added, reacted at 37° C. for 10 min and washed with phosphate buffer containing 0.1% Tween 20 to stop the reaction.
Then, 100 mU/ml peroxidase labeled anti-digoxigenin antibody solution (Roche, 100 μl) was added, and the mixture was reacted at 37° C. for 60 min, followed by washing with phosphate buffer containing 0.1% Tween 20.
A peroxidase color solution (Bio Rad, 100 μl) was added and allowed to react at room temperature for 4 min. The color reaction was stopped by adding 1N sulfuric acid (100 μl). The absorbance at 450 nm was measured.
The HIV integrase inhibitory activity (IC50) of the compound of the present invention was calculated from the inhibition rate according to the following formula. […]
Work on `CC(=O)NCCOc1cc2c(cc1Cc1cccc(Cl)c1F)c(=O)c(C(=O)O)cn2[C@H](CO)C(C)C` [Example 4-41, 7-(2-(acetylamino)ethoxy)-6-(3-chloro-2-fluorobenzyl)-1-((1S)-1-(hydroxymethyl)-2-methylpropyl)-4-oxo-1,4-dihydroquinoline-3-carboxylic acid] yielded an IC50 of 4.5 nM.
`CC(C)[C@@H](CO)n1cc(C(=O)O)c(=O)c2cc(Cc3cccc(Cl)c3F)c(OCc3ccc(S(N)(=O)=O)cc3)cc21` [Example 4-63, 7-(4-(aminosulfonyl)benzyloxy)-6-(3-chloro-2-fluorobenzyl)-1-((1S)-1-(hydroxymethyl)-2-methylpropyl)-4-oxo-1,4-dihydroquinoline-3-carboxylic acid] was tested, and the IC50 was 3.6 nM.
`COc1cc2c(cc1C(O)c1cccc(Cl)c1F)c(=O)c(C(=O)O)cn2[C@H](CO)C(C)C` (single isomer, unassigned) [Example 7-7] was tested, and the IC50 was 17 nM.
In the case of `COCCCCOc1cc(Cc2cccc(Cl)c2F)cc2c(=O)c(C(=O)O)cn([C@H](CO)C(C)C)c12` [Example 3-8, 6-(3-chloro-2-fluorobenzyl)-1-((1S)-1-(hydroxymethyl)-2-methylpropyl)-8-(4-methoxybutoxy)-4-oxo-1,4-dihydroquinoline-3-carboxylic acid], the IC50 is reported as 4 nM.
`CC(=O)N1CCN(c2cc3c(cc2Cc2cccc(Cl)c2F)c(=O)c(C(=O)O)cn3[C@H](CO)C(C)C)CC1` [Example 4-11, 7-(4-acetylpiperazin-1-yl)-6-(3-chloro-2-fluorobenzyl)-1-((1S)-1-(hydroxymethyl)-2-methylpropyl)-4-oxo-1,4-dihydroquinoline-3-carboxylic acid] gave an IC50 of 6.8 nM.
In the case of `CC(C)[C@@H](CO)n1cc(C(=O)O)c(=O)c2cc(Cc3cccc(Cl)c3F)cc(OCCCO)c21` [Example 3-2, 6-(3-chloro-2-fluorobenzyl)-1-((1S)-1-(hydroxymethyl)-2-methylpropyl)-8-(3-hydroxypropoxy)-4-oxo-1,4-dihydroquinoline-3-carboxylic acid], the IC50 is reported as 4.7 nM.
In the case of `CC(C)[C@@H](CO)n1cc(C(=O)O)c(=O)c2cc(Cc3cccc(Cl)c3F)c(OCC(F)(F)F)cc21` [Example 4-62, 6-(3-chloro-2-fluorobenzyl)-1-((1S)-1-(hydroxymethyl)-2-methylpropyl)-4-oxo-7-(2,2,2-trifluoroethyloxy)-1,4-dihydroquinoline-3-carboxylic acid], the IC50 is reported as 5.5 nM.
With `CC(C)[C@@H](CO)n1cc(C(=O)O)c(=O)c2cc(Cc3cccc(Cl)c3F)c(OCCCCN(C)C)cc21` [Example 4-7, 6-(3-chloro-2-fluorobenzyl)-7-(4-(dimethylamino)butoxy)-1-((1S)-1-(hydroxymethyl)-2-methylpropyl)-4-oxo-1,4-dihydroquinoline-3-carboxylic acid] the IC50 was 5 nM.
In the case of `COc1cc2c(cc1C(O)c1cccc(Cl)c1F)c(=O)c(C(=O)O)cn2[C@H](CO)C(C)C` (single isomer, unassigned) [Example 7-8], the IC50 is reported as 39 nM.
For `COc1cc2c(cc1Cc1ccc(F)cc1C(F)(F)F)c(=O)c(C(=O)O)cn2[C@H](CO)C(C)C` [Example 1-10, 6-(4-fluoro-2-(trifluoromethyl)benzyl)-1-((1S)-1-(hydroxymethyl)-2-methylpropyl)-7-methoxy-4-oxo-1,4-dihydroquinoline-3-carboxylic acid], the IC50 was 280 nM.
For `CC(C)[C@@H](CO)n1cc(C(=O)O)c(=O)c2cc(Cc3cccc(Cl)c3F)c(N3CCNCC3)cc21` [Example 4-12, 6-(3-chloro-2-fluorobenzyl)-1-((1S)-1-(hydroxymethyl)-2-methylpropyl)-4-oxo-7-(piperazin-1-yl)-1,4-dihydroquinoline-3-carboxylic acid], the IC50 was 7.3 nM.
Compound `COc1cc2c(cc1Cc1cccc(Cl)c1F)c(=O)c(C(=O)O)cn2[C@H](CO)CCSC` [Example 2-12, 6-(3-chloro-2-fluorobenzyl)-1-((1S)-1-(hydroxymethyl)-3-(methylthio)propyl)-7-methoxy-4-oxo-1,4-dihydroquinoline-3-carboxylic acid] has an IC50 of 5.7 nM.
`CCc1cc2c(cc1Cc1cccc(Cl)c1F)c(=O)c(C(=O)O)cn2[C@H](CO)C(C)C` [Example 4-4, 6-(3-chloro-2-fluorobenzyl)-7-ethyl-1-((1S)-1-(hydroxymethyl)-2-methylpropyl)-4-oxo-1,4-dihydroquinoline-3-carboxylic acid] was tested, and the IC50 was 4.7 nM.
`CC(C)[C@@H](CO)n1cc(C(=O)O)c(=O)c2cc(Cc3cccc(Cl)c3F)c(N3CCN(C)CC3)cc21` [Example 4-10, 6-(3-chloro-2-fluorobenzyl)-1-((1S)-1-(hydroxymethyl)-2-methylpropyl)-7-(4-methylpiperazin-1-yl)-4-oxo-1,4-dihydroquinoline-3-carboxylic acid] showed an IC50 of 6.2 nM.
In the case of `CC(C)[C@@H](CO)n1cc(C(=O)O)c(=O)c2cc(Cc3cccc(Cl)c3F)c3c(c21)OCCO3` [Example 6-1, 10-(3-chloro-2-fluorobenzyl)-5-((1S)-1-hydroxymethyl-2-methylpropyl)-8-oxo-2,3,5,8-tetrahydro-1,4-dioxa-5-aza-phenanthrene-7-carboxylic acid], the IC50 is reported as 5.9 nM.
For `COc1cc2c(cc1Cc1c(F)ccc(Cl)c1F)c(=O)c(C(=O)O)cn2[C@H](CO)C(C)C` [Example 1-2, 6-(3-chloro-2,6-difluorobenzyl)-1-((1S)-1-(hydroxymethyl)-2-methylpropyl)-7-methoxy-4-oxo-1,4-dihydroquinoline-3-carboxylic acid], the IC50 was 3.8 nM.
With `CC(C)[C@@H](CO)n1cc(C(=O)O)c(=O)c2cc(Cc3cccc(Cl)c3F)c(N3CCSCC3)cc21` [Example 4-32, 6-(3-chloro-2-fluorobenzyl)-1-((1S)-1-(hydroxymethyl)-2-methylpropyl)-4-oxo-7-(thiomorpholin-4-yl)-1,4-dihydroquinoline-3-carboxylic acid] the IC50 was 7.1 nM.
With `CC(C)[C@@H](CO)n1cc(C(=O)O)c(=O)c2cc(Cc3cccc(Cl)c3F)c(O)cc21` [Example 7-5, 6-(3-chloro-2-fluorobenzyl)-7-hydroxy-1-((1S)-1-(hydroxymethyl)-2-methylpropyl)-4-oxo-1,4-dihydroquinoline-3-carboxylic acid] the IC50 was 3.2 nM.
Compound `CC(C)[C@@H](CO)n1cc(C(=O)O)c(=O)c2cc(Cc3cccc(Cl)c3F)c(OCCCCN)cc21` [Example 4-34, 7-(4-aminobutoxy)-6-(3-chloro-2-fluorobenzyl)-1-((1S)-1-(hydroxymethyl)-2-methylpropyl)-4-oxo-1,4-dihydroquinoline-3-carboxylic acid hydrochloride] has an IC50 of 3.9 nM.
Work on `COCCCOc1cc(Cc2cccc(Cl)c2F)cc2c(=O)c(C(=O)O)cn([C@H](CO)C(C)C)c12` [Example 3-7, 6-(3-chloro-2-fluorobenzyl)-1-((1S)-1-(hydroxymethyl)-2-methylpropyl)-8-(3-methoxypropoxy)-4-oxo-1,4-dihydroquinoline-3-carboxylic acid] yielded an IC50 of 4.7 nM.
In the case of `COc1cc2c(cc1Cc1cccc(Cl)c1F)c(=O)c(C(=O)O)cn2[C@H](CO)CS(C)(=O)=O` [Example 2-4, 6-(3-chloro-2-fluorobenzyl)-1-((1R)-1-(hydroxymethyl)-2-mesylethyl)-7-methoxy-4-oxo-1,4-dihydroquinoline-3-carboxylic acid], the IC50 is reported as 10 nM.
